In patent US20230203043A1, “NOVEL IMIDAZOPYRAZINE DERIVATIVES” (Hoffmann-La Roche Inc., priority 2020, published 2023):
Structures can show the parent of a compound that is named as a salt. Where two headings read alike, the source gives them in different places.

System: Acinetobacter baumannii ATCC17961
Test: Antimicrobial susceptibility testing: 90% growth inhibitory concentration (IC90) determination in Iso-Sensitest broth, OD600 growth
Format: cell-based
Summary of the method: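 Compounds were twofold serially diluted in DMSO across 10 points (e.g. 50 to 0.097 μM final) and inoculated at ~5×10^(5) CFU/ml. Plates incubated at 35±2° C, with OD600 read every 20 minutes over 16 h. IC90 was derived from growth inhibition during logarithmic growth.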

[1] = Acinetobacter baumannii, ATCC17961, 16 h, strain ATCC 17961, OD600 growth over 16 h, read-out: A. baumannii ATCC 17961 IC90
[2] = Acinetobacter baumannii, ATCC17961, 16 h, read-out: A. baumannii ATCC 17961 IC90 (uM), strain ATCC 17961, OD600 growth over 16 h
[3] = strain ATCC 17961, OD600 growth over 16 h, read-out: A. baumannii ATCC 17961 IC90

| Compound | IC90 [1] [µM] | IC90 [2] [µM] | further results |
| --- | --- | --- | --- |
| O=C(c1ccc(Nc2nccn3c(-c4c[nH]nc4C(F)(F)F)cnc23)cc1Cl)N1CC2(CNC2)C1 [Example 111, [2-chloro-4-[[3-[3-(trifluoromethyl)-1H-pyrazol-4-yl]imidazo[1,2-a]pyrazin-8-yl]amino]phenyl]-(2,6-diazaspiro[3.3]heptan-2-yl)methanone] | 0.997 | – | – |
| C#CCn1cc(-c2cnc3c(Nc4ccc(C(=O)NCC)c(CC)c4)nccn23)c(C(F)(F)F)n1 [Example 112, N,2-diethyl-4-[[3-[1-prop-2-ynyl-3-(trifluoromethyl)pyrazol-4-yl]imidazo[1,2-a]pyrazin-8-yl]amino]benzamide] | 0.231 | – | – |
| CCNC(=O)c1ccc(Nc2nccn3c(-c4cn(CC#N)nc4C(F)(F)F)cnc23)cc1CC [Example 113, 4-[[3-[1-(cyanomethyl)-3-(trifluoromethyl)pyrazol-4-yl]imidazo[1,2-a]pyrazin-8-yl]amino]-N,2-diethylbenzamide] | 0.234 | – | – |
| CCNC(=O)c1ccc(Nc2nccn3c(-c4cn(CCF)nc4C(F)(F)F)cnc23)cc1CC [Example 114, N,2-diethyl-4-[[3-[1-(2-fluoroethyl)-3-(trifluoromethyl)pyrazol-4-yl]imidazo[1,2-a]pyrazin-8-yl]amino]benzamide] | 0.329 | – | – |
| O=C(c1ccc(Nc2nccn3c(-c4cn(CC(F)F)nc4C(F)(F)F)cnc23)cc1Cl)N1CCN(C(=O)[C@@H]2CCCN2)CC1 [Example 115, [2-chloro-4-[[3-[1-(2,2-difluoroethyl)-3-(trifluoromethyl)pyrazol-4-yl]imidazo[1,2-a]pyrazin-8-yl]amino]phenyl]-[4-[(2S)-pyrrolidine-2-carbonyl]piperazin-1-yl]methanone] | 0.251 | – | – |
| C#CCn1cc(-c2cnc3c(Nc4ccc(C(=O)NCC(=O)NCCN)c(Cl)c4)nccn23)c(C(F)(F)F)n1 [Example 116, N-[2-(2-aminoethylamino)-2-oxoethyl]-2-chloro-4-[[3-[1-prop-2-ynyl-3-(trifluoromethyl)pyrazol-4-yl]imidazo[1,2-a]pyrazin-8-yl]amino]benzamide formate] | – | 0.22 | – |
| NCCNC(=O)CNC(=O)c1ccc(Nc2nccn3c(-c4cn(CC(F)F)nc4C(F)(F)F)cnc23)cc1Cl [Example 117, N-[2-(2-aminoethylamino)-2-oxoethyl]-2-chloro-4-[[3-[1-(2,2-difluoroethyl)-3-(trifluoromethyl)pyrazol-4-yl]imidazo[1,2-a]pyrazin-8-yl]amino]benzamide formate] | – | 0.338 | – |
| Cc1cc(Cn2cc(-c3cnc4c(Nc5ccc(C(=O)N6CCNCC6)c(Cl)c5)nccn34)c(C(F)(F)F)n2)n[nH]1 [Example 118, [2-chloro-4-[[3-[1-[(5-methyl-1H-pyrazol-3-yl)methyl]-3-(trifluoromethyl)pyrazol-4-yl]imidazo[1,2-a]pyrazin-8-yl]amino]phenyl]-piperazin-1-ylmethanone formate] | – | 0.343 | – |
| N#CCn1cc(-c2cnc3c(Nc4ccc(C(=O)NCC(=O)NCCN)c(Cl)c4)nccn23)c(C(F)(F)F)n1 [Example 119, N-[2-(2-aminoethylamino)-2-oxoethyl]-2-chloro-4-[[3-[1-(cyanomethyl)-3-(trifluoromethyl)pyrazol-4-yl]imidazo[1,2-a]pyrazin-8-yl]amino]benzamide formate] | – | 0.476 | – |
| O=C(c1ccc(Nc2nccn3c(-c4cn(CC(F)F)nc4C(F)(F)F)cnc23)cc1Cl)N1CCNCC1 [Example 120, [2-chloro-4-[[3-[1-(2,2-difluoroethyl)-3-(trifluoromethyl)pyrazol-4-yl]imidazo[1,2-a]pyrazin-8-yl]amino]phenyl]-piperazin-1-ylmethanone] | 0.109 | – | – |
| C=CCn1cc(-c2cnc3c(Nc4ccc(C(=O)NCCOCCN)c(CC)c4)nccn23)c(C(F)F)n1 [Example 121, N-[2-(2-aminoethoxy)ethyl]-4-[[3-[3-(difluoromethyl)-1-prop-2-enylpyrazol-4-yl]imidazo[1,2-a]pyrazin-8-yl]amino]-2-ethylbenzamide] | 0.201 | – | – |
| CCc1cc(Nc2nccn3c(-c4cn(CC(F)F)nc4C(F)F)cnc23)ccc1C(=O)NCCOCCN [Example 122, N-[2-(2-aminoethoxy)ethyl]-4-[[3-[1-(2,2-difluoroethyl)-3-(difluoromethyl)pyrazol-4-yl]imidazo[1,2-a]pyrazin-8-yl]amino]-2-ethylbenzamide] | 0.208 | – | – |
| C#CCn1cc(-c2cnc3c(Nc4ccc(C(=O)NCCOCCN)c(CC)c4)nccn23)c(C(F)F)n1 [Example 123, N-[2-(2-aminoethoxy)ethyl]-4-[[3-[3-(difluoromethyl)-1-prop-2-ynylpyrazol-4-yl]imidazo[1,2-a]pyrazin-8-yl]amino]-2-ethylbenzamide] | 0.209 | – | – |
| CNC(=O)c1ccc(Nc2nccn3c(-c4cn(CC(F)F)nc4C(F)(F)F)cnc23)cc1Cl [Example 124, 2-chloro-4-[[3-[1-(2,2-difluoroethyl)-3-(trifluoromethyl)pyrazol-4-yl]imidazo[1,2-a]pyrazin-8-yl]amino]-N-methylbenzamide] | 0.121 | – | – |
| O=C(CNC(=O)c1ccc(Nc2nccn3c(-c4c[nH]nc4C(F)(F)F)cnc23)cc1Cl)N[C@H]1CCNC1 [Example 125, 2-chloro-N-[2-oxo-2-[[(3S)-pyrrolidin-3-yl]amino]ethyl]-4-[[3-[3-(trifluoromethyl)-1H-pyrazol-4-yl]imidazo[1,2-a]pyrazin-8-yl]amino]benzamide] | 2.23 | – | – |
| C[C@H](NC(=O)c1ccc(Nc2nccn3c(-c4c[nH]nc4C(F)(F)F)cnc23)cc1Cl)C(=O)N1CCC(N)CC1 [Example 126, N-[(2S)-1-(4-aminopiperidin-1-yl)-1-oxopropan-2-yl]-2-chloro-4-[[3-[3-(trifluoromethyl)-1H-pyrazol-4-yl]imidazo[1,2-a]pyrazin-8-yl]amino]benzamide formate] | – | 4.15 | – |
| C[C@H](NC(=O)c1ccc(Nc2nccn3c(-c4c[nH]nc4C(F)(F)F)cnc23)cc1Cl)C(=O)N[C@H]1CCNC1 [Example 127, 2-chloro-N-[(2S)-1-oxo-1-[[(3S)-pyrrolidin-3-yl]amino]propan-2-yl]-4-[[3-[3-(trifluoromethyl)-1H-pyrazol-4-yl]imidazo[1,2-a]pyrazin-8-yl]amino]benzamide formate] | – | > 5 | – |
| C#CCn1cc(-c2cnc3c(Nc4ccc(C(=O)N[C@H](C)CNC(=O)OC(C)(C)C)c(CC)c4)nccn23)c(C(F)(F)F)n1 [Example 128, tert-butyl N-[(2R)-2-[[2-ethyl-4-[[3-[1-prop-2-ynyl-3-(trifluoromethyl)pyrazol-4-yl]imidazo[1,2-a]pyrazin-8-yl]amino]benzoyl]amino]propyl] carbamate] | – | – | IC90 [3]: 0.659 µM |
| C=CCn1cc(-c2cnc3c(Nc4ccc(C(=O)N[C@H](C)CNC(=O)OC(C)(C)C)c(CC)c4)nccn23)c(C(F)(F)F)n1 [Example 129, tert-butyl N-[(2R)-2-[[2-ethyl-4-[[3-[1-prop-2-enyl-3-(trifluoromethyl)pyrazol-4-yl]imidazo[1,2-a]pyrazin-8-yl]amino]benzoyl]amino]propyl] carbamate] | – | – | IC90 [3]: 1.06 µM |
| CCc1cc(Nc2nccn3c(-c4cn(CC(F)F)nc4C(F)(F)F)cnc23)ccc1C(=O)N[C@H](C)CNC(=O)OC(C)(C)C [Example 130, tert-butyl N-[(2R)-2-[[4-[[3-[1-(2,2-difluoroethyl)-3-(trifluoromethyl)pyrazol-4-yl]imidazo[1,2-a]pyrazin-8-yl]amino]-2-ethylbenzoyl]amino]propyl] carbamate] | – | – | IC90 [3]: 1.33 µM |
| NCC(=O)N1CCN(C(=O)c2ccc(Nc3nccn4c(-c5c[nH]nc5C(F)(F)F)cnc34)cc2Cl)CC1 [Example 131, 2-amino-1-[4-[2-chloro-4-[[3-[3-(trifluoromethyl)-1H-pyrazol-4-yl]imidazo[1,2-a]pyrazin-8-yl]amino]benzoyl]piperazin-1-yl]ethanone] | 0.117 | – | – |
| N#CCn1cc(-c2cnc3c(Nc4ccc(C(=O)N5CCN(C(=O)CN)CC5)c(Cl)c4)nccn23)c(C(F)(F)F)n1 [Example 132, 2-[4-[8-[4-[4-(2-aminoacetyl)piperazine-1-carbonyl]-3-chloroanilino]imidazo[1,2-a]pyrazin-3-yl]-3-(trifluoromethyl)pyrazol-1-yl]acetonitrile] | 0.136 | – | – |
| O=C(CC1CNC1)N1CCN(C(=O)c2ccc(Nc3nccn4c(-c5c[nH]nc5C(F)(F)F)cnc34)cc2Cl)CC1 [Example 133, 2-(azetidin-3-yl)-1-[4-[2-chloro-4-[[3-[3-(trifluoromethyl)-1H-pyrazol-4-yl]imidazo[1,2-a]pyrazin-8-yl]amino]benzoyl]piperazin-1-yl]ethanone] | 0.322 | – | – |
| Cn1cc(Cn2cc(-c3cnc4c(Nc5ccc(C(=O)N6CCNCC6)c(Cl)c5)nccn34)c(C(F)(F)F)n2)cn1 [Example 134, [2-chloro-4-[[3-[1-[(1-methylpyrazol-4-yl)methyl]-3-(trifluoromethyl)pyrazol-4-yl]imidazo[1,2-a]pyrazin-8-yl]amino]phenyl]-piperazin-1-ylmethanone formate] | – | 0.768 | – |
| O=C(c1ccc(Nc2nccn3c(-c4cn(Cc5cccnn5)nc4C(F)(F)F)cnc23)cc1Cl)N1CCNCC1 [Example 135, [2-chloro-4-[[3-[1-(pyridazin-3-ylmethyl)-3-(trifluoromethyl)pyrazol-4-yl]imidazo[1,2-a]pyrazin-8-yl]amino]phenyl]-piperazin-1-ylmethanone formate] | – | 0.933 | – |
| NC1CCN(C(=O)CNC(=O)c2ccc(Nc3nccn4c(-c5c[nH]nc5C(F)(F)F)cnc34)cc2Cl)CC1 [Example 136, N-[2-(4-aminopiperidin-1-yl)-2-oxoethyl]-2-chloro-4-[[3-[3-(trifluoromethyl)-1H-pyrazol-4-yl]imidazo[1,2-a]pyrazin-8-yl]amino]benzamide] | 1.33 | – | – |
